The structures appear in SMILES notation. Values after ≈ are worked out from the molar mass of the structure shown. Where two headings read alike, the source gives them in different places.

Common to all, as to test: MIC measurement, YAG medium
Holding throughout (format): cell-based

In test [1] the test system is Aspergillus flavus. The conditions noted are these: Aspergillus flavus, MIC banded into grades, lowest concentration inhibiting growth by >70%. The procedure:
(§1) Between 1 and 5 mgs of compound were accurately weighed out into a sterile Eppendorf tube. The compound was dissolved in DMSO to give a solution containing […]. Tubes were stored at −20° C. until required.
(§2) On the day of testing thawed solutions were vortex mixed to ensure homogeneity. 30 μL of solution was removed and added to 570 μL of sterile water in a separate sterile Eppendorf. The thoroughly mixed solution was used to prepare a series of doubling dilutions in water, in a deep well plate. Thirteen replicate plates were prepared using a Minitrak by aspirating 20 μL from each well into eleven clear polystyrene 96 well plates.
(§3) Spores of Aspergillus spp. (Aspergillus fumigatus [two strains], Aspergillus terreus [two strains], Aspergillus niger and Aspergillus flavus) were harvested from cultures grown on Sabarauds agar for 5 days, and resuspended in PBS/Tween 80 to approx 1×10^7 cfu/mL. Other filamentous fungi (Absidia corymbifera, Fusarium solani, Rhizomucor, Scedosporium spp., Trichophyton spp.), were grown on Sabarauds agar for 2-10 days and spores/hyphae resuspended in PBS/Tween to give approx 1×10^7 cfu/mL. Candida species (Candida albicans, Candida glabrata, Candida krusei, Candida parapsilosis and Candida tropicalis) were grown on Sabarauds agar, cells were harvested from the agar using a sterile loop and resuspended in PBS/Tween 80 to approx 1×10^6 cfu/mL. Each organism suspension was diluted in RPMI medium, containing 2% glucose and 0.135 M MOPS buffer (pH 7.0) to 0.5-2×10^4 cfu/mL for Aspergillus spp. and other filamentous fungi and 0.5-2×10^3 cfu/mL for yeast. 80 μL of an organism suspension was added to each well of the plate containing drug dilutions.
(§4) This produced MIC plates with a drug range 50-0.05 mg/L and organism inocula of 1-2×10^4 cfu/mL for Aspergillus spp. and other filamentous fungi and 1-2×10^3 cfu/mL for yeasts. All plates were incubated for 24-48 hrs at 35° C. Growth was assessed by monitoring the optical density at 485 nm for each well. The MIC of a compound is the lowest drug concentration that inhibits growth of an organism by >80% compared with a drug free control. MICs are recorded as mg/L. Other growth media can be used for susceptibility testing, and the activity of the described compounds can also be assessed in a medium comprising 1% glucose, 1% ammonium chloride and 0.5% yeast extract (YAG medium). To perform MIC tests in this medium, dilutions of compounds are prepared in microtitre plates as described above. Fungal strains to be tested are grown and harvested in an identical manner to that described above, each organism suspension is then diluted in YAG medium to 0.5-2×10^4 cfu/mL for Aspergillus spp. and other filamentous fungi and 0.5-2×10^3 cfu/mL for yeast. 80 μL of an organism suspension was added to each well of the plate containing drug dilutions. This produced MIC plates with a drug range 50-0.05 mg/L and organism inocula of 1-2×10^4 cfu/mL for Aspergillus spp. and other filamentous fungi and 1-2×10^3 cfu/mL for yeasts. All plates were incubated for 24 hrs at 35° C. Growth was assessed by monitoring the optical density at 485 nm for each well. The MIC of a compound is the lowest drug concentration that inhibits growth of an organism by >70% compared with a drug free control. MICs are recorded as mg/L. In cases where the MIC of an organism is […] mg/L the MIC is repeated using a concentration range of 0.5-0.0005 mg/L. MIC tests in YAG medium have more clear-cut endpoints and have slightly lower MICs than those performed in RPMI medium.
(§5) The following organisms were tested: Absidia corymbifera, Aspergillus flavus, Aspergillus fumigatus AF293 and AF210, Aspergillus niger, Aspergillus terreus AT4 and AT49, Candida albicans, Candida glabrata, Candida krusei, Candida parapsilosis, Candida tropicalis, Fusarium solani, Rhizomucor sp., Scedosporium apiospermum, Scedosporium prolificans, Trichophyton mentagrophytes, and Trichophyton rubrum.

The subject of test [2] is Aspergillus fumigatus AF210. To be noted: Aspergillus fumigatus, MIC banded into grades, strain AF210, read-out: MIC A. fumigatus 210. The procedure:
as §1, §2, §3, §4, §5

The test system of test [3] is Aspergillus fumigatus. The conditions noted are these: Aspergillus fumigatus, read-out: MIC A. fumigatus. The procedure: as §1, §2, §3, §4, §5
In test [4] the test system is Aspergillus niger. To be noted: Aspergillus niger, MIC banded into grades. The procedure:
as §1, §2, §3, §4, §5

Test [5] deals with Aspergillus terreus AT49. The conditions noted are these: Aspergillus terreus, MIC banded into grades, strain AT49, read-out: MIC A. terreus 49. The procedure:
as §1, §2, §3, §4, §5

The test system of test [6] is Aspergillus terreus. To be noted: Aspergillus terreus, MIC banded into grades, strain not named in head (AT4). The procedure: as §1, §2, §3, §4, §5
Where [7] appears, read: YAG medium, MIC banded into grades, strain AF293.

With `CCOCCN(C1=NC(C)(C)CO1)c1ccc(NC(=O)C(=O)c2c(-c3ccccc3)cc3ccccn23)cc1` [Example 28], the MIC in test [1] is 1 to 10 µg/mL (≈ 1.91 to 19.1 µM); in test [2], 1 to 10 µg/mL (≈ 1.91 to 19.1 µM); in test [3] (setting [7]) it was 1 to 10 µg/mL (≈ 1.91 to 19.1 µM); in test [4], under 1 µg/mL; in test [5], 1 to 10 µg/mL (≈ 1.91 to 19.1 µM); in test [6], 1 to 10 µg/mL (≈ 1.91 to 19.1 µM).

Regarding `O=C(Nc1ccc(N2CCN(Cc3cccs3)CC2)cc1)C(=O)c1c(-c2ccccc2)cc2ccccn12` [Example 33, 2-Oxo-2-(2-phenylindolizin-3-yl)-N-[4-(4-thiophen-2-ylmethylpiperazin-1-yl)phenyl] acetamide], the MIC in test [1], in test [2], in test [3] (setting [7]), in test [4], in test [5] and in test [6] was under 1 µg/mL throughout.

For the compound `O=C(Nc1ccc(N2CCN(c3cccc(CCO)n3)CC2)cc1)C(=O)c1c(-c2ccccc2)cc2ccccn12` [Example 88, N-(4-{4-[6-(2-hydroxy-ethyl)-pyridin-2-yl]-piperazin-1-yl}-phenyl)-2-oxo-2-(2-phenyl-indolizin-3-yl)-acetamide], the MIC in test [3] (setting [7]) was under 1 µg/mL.

Turning to `Cc1nccn1CCCOc1ccc(NC(=O)C(=O)c2c(-c3ccccc3)cc3ccccn23)cc1C(C)C` [Example 20, N-{3-Isopropyl-4-[3-(2-methyl-imidazol-1-yl)-propoxy]-phenyl}-2-oxo-2-(2-phenyl-indolizin-3-yl)-acetamide], the MIC in test [3] (setting [7]) was 1 to 10 µg/mL (≈ 1.92 to 19.2 µM).

`O=C(Nc1ccccc1F)C(=O)c1c(-c2ccccc2)cc2ccc3ccccc3n12` [Example 4, N-(2-fluoro-phenyl)-2-oxo-2-(2-phenyl-pyrrolo[1,2-a]quinolin-1-yl)-acetamide]: in test [3] (setting [7]), the MIC is over 10 µg/mL.

In the case of `COCc1cc(N2CCN(c3cc(C)cc(C)n3)CC2)ccc1NC(=O)C(=O)c1c(-c2ccccc2)cc2ccccn12` [Example 83, N-{4-[4-(4,6-Dimethyl-pyridin-2-yl)-piperazin-1-yl]-2-methoxymethyl-phenyl}-2-oxo-2-(2-phenyl-indolizin-3-yl)-acetamide], the MIC in test [3] (setting [7]) is under 1 µg/mL.

Regarding `COCCOc1cc(C)nc(N2CCN(c3ccc(NC(=O)C(=O)c4c(-c5ccccc5)cc5ccccn45)cc3)CC2)c1` [Example 57, N-(4-{4-[4-(2-Methoxy-ethoxy)-6-methyl-pyridin-2-yl]-piperazin-1-yl}-phenyl)-2-oxo-2-(2-phenyl-indolizin-3-yl)-acetamide], the MIC in test [3] (setting [7]) was under 1 µg/mL.

`Cc1cc(C)nc(N2CCN(c3ccc(NC(=O)C(=O)c4c(C5CCCC5)cc5ccccn45)cc3)CC2)c1` [Example 47, 2-(2-Cyclopentyl-indolizin-3-yl)-N-{4-[4-(4,6-dimethyl-pyridin-2-yl)-piperazin-1-yl]-phenyl}-2-oxo-acetamide]: in test [3] (setting [7]), the MIC is under 1 µg/mL.

For `Cc1cc(C)nc(N(C)CCOc2ccc(NC(=O)C(=O)c3c(-c4ccccc4)cc4ccccn34)cc2)c1` [Example 64, N-(4-{2-[(4,6-Dimethyl-pyridin-2-yl)-methyl-amino]-ethoxy}-phenyl)-2-oxo-2-(2-phenyl-indolizin-3-yl)-acetamide], in test [3] (setting [7]), the minimal inhibitory concentration (MIC) was under 1 µg/mL.

`Cc1cc(C)nc(N2CCN(c3ccc(NC(=O)C(=O)c4c(C5CCN(C)CC5)cc5ccccn45)cc3)CC2)c1` [Example 63, N-{4-[4-(4,6-Dimethyl-pyridin-2-yl)-piperazin-1-yl]-phenyl}-2-[2-(1-methyl-piperidin-4-yl)-indolizin-3-yl]-2-oxo-acetamide]: the MIC in test [3] (setting [7]) was over 10 µg/mL.

In the case of `CCN(CC)C(=O)Oc1cc(-c2ccc(NC(=O)C(=O)c3c(-c4ccccc4)cc4ccccn34)cc2)on1` [Example 27, Diethyl-carbamic acid-5-{4-[2-oxo-2-(2-phenyl-indolizin-3-yl)-aeetylamino]-phenyl}-isoxazol-3-yl ester], the MIC in test [3] was under 1 µg/mL.

For the compound `CN1CCN(c2ccc(NC(=O)C(=O)c3c(-c4ccccc4)cc4ccccn34)cc2-c2ncco2)CC1` [Example 19, N-[4-(4-methyl-piperazin-1-yl)-3-oxazol-2-yl-phenyl]-2-oxo-2-(2-phenyl-indolizin-3-yl)-acetamide], in test [3] (setting [7]), the MIC is over 10 µg/mL.

Consider `C=C(C)CN1CCN(c2ccc(NC(=O)C(=O)c3c(-c4ccc(N5CCOCC5)cc4)cc4ccccn34)cc2)CC1` [Example 40, N-{4-[4-(2-Methyl-allyl)-piperazin-1-yl]-phenyl}-2-[2-(4-morpholin-4-yl-phenyl)-indolizin-3-yl]-2-oxo-acetamide], for which, in test [3] (setting [7]), the MIC is over 10 µg/mL.

As for `O=C(Nc1ccc(NCCOc2ccccn2)cc1)C(=O)c1c(-c2ccccc2)cc2ccccn12` [Example 90, 2-Oxo-2-(2-phenyl-indolizin-3-yl)-N-{4-[2-(pyridin-2-yloxy)-ethylamino]-phenyl}-acetamide], the MIC in test [3] (setting [7]) is under 1 µg/mL.

With `C=C1CCN(c2ccc(NC(=O)C(=O)c3c(-c4cccnc4C)cc4ccccn34)cc2)CC1` [Example 46, N-[4-(4-Methylene-piperidin-1-yl)-phenyl]-2-[2-(2-methyl-pyridin-3-yl)-indolizin-3-yl]-2-oxo-acetamide], in test [3] (setting [7]), the MIC is under 1 µg/mL.

As for `Cc1ccnc(N2CCN(c3ccc(NC(=O)C(=O)c4c(-c5ccccc5)cc5ccccn45)cc3)CC2)c1` [Example 49, N-{4-[4-(4-Methyl-pyridin-2-yl)-piperazin-1-yl]-phenyl}-2-oxo-2-(2-phenyl-indolizin-3-yl)-acetamide], the MIC in test [3] (setting [7]) is under 1 µg/mL.

Turning to `Cc1cc(C)nc(N2CCN(c3ccc(NC(=O)C(=O)c4c(C(C)C)cc5ccccn45)cc3)CC2)c1` [Example 61, N-{4-[4-(4,6-Dimethyl-pyridin-2-yl)-piperazin-1-yl]-phenyl}-2-(2-isopropyl-indolizin-3-yl)-2-oxo-acetamide], the MIC in test [3] (setting [7]) is under 1 µg/mL.

With `Cc1cc(C)nc(N(C)CCN(C)c2ccc(NC(=O)C(=O)c3c(-c4ccccc4)cc4ccccn34)cc2)c1` [Example 55, N-[4-({2-[(4,6-Dimethyl-pyridin-2-yl)-methyl-amino]-ethyl}-methyl-amino)-phenyl]-2-oxo-2-(2-phenyl-indolizin-3-yl)-acetamide], the MIC in test [3] (setting [7]) was under 1 µg/mL.

Regarding `Cc1cc(C)nc(N2CCN(c3ccc(NC(=O)C(=O)c4c(-c5ccccc5)cc5ccccn45)cc3)CC2)n1` [Example 44, N-{4-[4-(4,6-Dimethyl-pyrimidin-2-yl)-piperazin-1-yl]-phenyl}-2-oxo-2-(2-phenyl-indolizin-3-yl)-acetamide], the MIC in test [3] (setting [7]) was under 1 µg/mL.

For `O=C(Nc1ccc(N2CCN(c3ccc(CN4CCOCC4)cc3)CC2)cc1)C(=O)c1c(-c2ccccc2)cc2ccccn12` [Example 56, N-{4-[4-(4-Morpholin-4-ylmethyl-phenyl)-piperazin-1-yl]-phenyl}-2-oxo-2-(2-phenyl-indolizin-3-yl)-acetamide], in test [3] (setting [7]), the MIC is under 1 µg/mL.

As for `CC(C)(C)CN1CCN(c2ccc(NC(=O)C(=O)c3c(-c4ccccc4)cc4ccccn34)nc2)CC1` [Example 50, N-{5-[4-(2,2-Dimethyl-propyl)-piperazin-1-yl]-pyridin-2-yl}-2-oxo-2-(2-phenyl-indolizin-3-yl)-acetamide], in test [3] (setting [7]), the MIC was under 1 µg/mL.

For `Cc1cc(C)nc(CNc2ccc(NC(=O)C(=O)c3c(-c4ccccc4)cc4ccccn34)cc2)c1` [Example 91, N-{4-[(4,6-Dimethyl-pyridin-2-ylmethyl)-amino]-phenyl}-2-oxo-2-(2-phenyl-indolizin-3-yl)-acetamide], the MIC in test [3] (setting [7]) is under 1 µg/mL.

Broadly, the MIC is the lowest concentration that inhibits growth of the organism.

(Values after patent publication US8604029B2, “2-[(2-substituted)-indolizin-3-yl]-2-oxo-acetamide derivatives as antifungal agents” (F2G Ltd British Body Corporate, priority 2006, dated 2013).)
